According to ChEMBL document CHEMBL1201862, “PubChem BioAssay data set” (2004):
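Step 1: Grow cells in 96-well plates. Step 2: Expose to compound for 48 hours at 5 concentrations. Step 3: Interpolate endpoints linearly; if unreached, use highest concentration. GI50: concentration for 50% inhibition of growth.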 Activity calls are given as the source filed them. Rule as the data show it: active = GI50 up to about 1.1 µM and inactive = higher.

Experiments:
Test in all cases: growth of human tumour cells (NCI), 48 h
EKVX = test system: EKVX
NCI-H23 = test system: NCI-H23
MOLT-4 = test system: MOLT-4
SN12C = test system: SN12C
SK-MEL-5 = test system: SK-MEL-5
SK-MEL-2 = test system: SK-MEL-2
SK-OV-3 = test system: SK-OV-3
COLO 205 = test system: COLO 205
786-0 = test system: 786-0
HCT-15 = test system: HCT-15
A549 = test system: A549
UACC-257 = test system: UACC-257
SNB-19 = test system: SNB-19
M14 = test system: M14
BT-549 = test system: BT-549
SR = test system: SR
OVCAR-4 = test system: OVCAR-4
SF-539 = test system: SF-539
HOP-92 = test system: HOP-92
T47D = test system: T47D
NCI/ADR-RES = test system: NCI/ADR-RES
TK-10 = test system: TK-10
UACC-62 = test system: UACC-62
NCI-H460 = test system: NCI-H460
Hs-578T = test system: Hs-578T
HL-60 = test system: HL-60
IGROV-1 = test system: IGROV-1
K562 = test system: K562
A498 = test system: A498
U-251 = test system: U-251
NCI-H522 = test system: NCI-H522
SNB-75 = test system: SNB-75
HT-29 = test system: HT-29
MDA-MB-435 = test system: MDA-MB-435
CAKI-1 = test system: CAKI-1
SF-295 = test system: SF-295
MDA-MB-231 = test system: MDA-MB-231
SW-620 = test system: SW-620
ACHN = test system: ACHN
RPMI-8226 = test system: RPMI-8226
OVCAR-5 = test system: OVCAR-5
OVCAR-3 = test system: OVCAR-3
SF-268 = test system: SF-268
UO-31 = test system: UO-31
SK-MEL-28 = test system: SK-MEL-28
PC-3 = test system: PC-3
RXF 393 = test system: RXF 393
LOX IMVI = test system: LOX IMVI
NCI-H226 = test system: NCI-H226
MDA-N = test system: MDA-N
HOP-62 = test system: HOP-62
OVCAR-8 = test system: OVCAR-8
CCRF-CEM = test system: CCRF-CEM
HCT-116 = test system: HCT-116
MCF7 = test system: MCF7
Malme-3M = test system: Malme-3M
DU-145 = test system: DU-145
KM12 = test system: KM12

How did the GI50 (EKVX) turn out when `CCOc1cc(-c2nc3ccccn3c2/N=C/c2cc(Br)ccc2O)ccc1O` was run?
The GI50 was 23 µM (inactive).

What about the GI50 (NCI-H23) of the same compound?
The GI50 was 39.8 µM (inactive).

And the GI50 (MOLT-4)?
The GI50 was 45.7 µM (inactive).

What about the GI50 (SN12C) of the same compound?
The GI50 was 31.3 µM (inactive).

What about the GI50 (SK-MEL-5) of the same compound?
The GI50 was 30.3 µM (inactive).

What about the GI50 (SK-MEL-2) of the same compound?
Its GI50 is 46.1 µM (inactive).

And the GI50 (SK-OV-3)?
Its GI50 is 29.2 µM (inactive).

And the GI50 (COLO 205)?
The GI50 was > 100 µM (inactive).

What about the GI50 (786-0) of the same compound?
Its GI50 is 25.1 µM (inactive).

And the GI50 (HCT-15)?
The GI50 was 8.51 µM.

And the GI50 (A549)?
Its GI50 is 37.9 µM (inactive).

What about the GI50 (UACC-257) of the same compound?
The GI50 was 18.1 µM (inactive).

What about the GI50 (SNB-19) of the same compound?
The GI50 was 21.3 µM (inactive).

And the GI50 (M14)?
Its GI50 is 36.1 µM (inactive).

What about the GI50 (BT-549) of the same compound?
Its GI50 is 29.6 µM (inactive).

And the GI50 (SR)?
The GI50 was 35.6 µM (inactive).

And the GI50 (OVCAR-4)?
The GI50 was 14.1 µM (inactive).

And the GI50 (SF-539)?
The GI50 was 29.6 µM (inactive).

What about the GI50 (HOP-92) of the same compound?
Its GI50 is 21.1 µM (inactive).

What about the GI50 (T47D) of the same compound?
Its GI50 is 2.37 µM (inactive).

And the GI50 (NCI/ADR-RES)?
The GI50 was 27.7 µM (inactive).

What about the GI50 (TK-10) of the same compound?
Its GI50 is 21.1 µM (inactive).

And the GI50 (UACC-62)?
The GI50 was 23.9 µM (inactive).

And the GI50 (NCI-H460)?
The GI50 was 58.3 µM (inactive).

What about the GI50 (Hs-578T) of the same compound?
Its GI50 is 61.4 µM (inactive).

And the GI50 (HL-60)?
Its GI50 is 15 µM (inactive).

And the GI50 (IGROV-1)?
The GI50 was 20.6 µM (inactive).

And the GI50 (K562)?
Its GI50 is 24.2 µM (inactive).

And the GI50 (A498)?
The GI50 was 31.6 µM (inactive).

What about the GI50 (U-251) of the same compound?
Its GI50 is 17.5 µM (inactive).

What about the GI50 (NCI-H522) of the same compound?
The GI50 was 35.9 µM (inactive).

What about the GI50 (SNB-75) of the same compound?
Its GI50 is 5.62 µM (inactive).

What about the GI50 (HT-29) of the same compound?
The GI50 was 42.1 µM (inactive).

And the GI50 (MDA-MB-435)?
The GI50 was 66.8 µM (inactive).

What about the GI50 (CAKI-1) of the same compound?
Its GI50 is 67.1 µM (inactive).

And the GI50 (SF-295)?
The GI50 was 58.2 µM (inactive).

And the GI50 (MDA-MB-231)?
The GI50 was 30.5 µM (inactive).

And the GI50 (SW-620)?
The GI50 was 65 µM (inactive).

And the GI50 (ACHN)?
The GI50 was 47.5 µM (inactive).

And the GI50 (RPMI-8226)?
Its GI50 is 26.5 µM (inactive).

What about the GI50 (OVCAR-5) of the same compound?
Its GI50 is 73.5 µM (inactive).

And the GI50 (OVCAR-3)?
The GI50 was 9.29 µM (inactive).

And the GI50 (SF-268)?
Its GI50 is 19.1 µM (inactive).

And the GI50 (UO-31)?
The GI50 was 27 µM (inactive).

What about the GI50 (SK-MEL-28) of the same compound?
The GI50 was > 100 µM (inactive).

And the GI50 (PC-3)?
Its GI50 is 18.8 µM (inactive).

What about the GI50 (RXF 393) of the same compound?
The GI50 was 16 µM (inactive).

What about the GI50 (LOX IMVI) of the same compound?
Its GI50 is 23.2 µM (inactive).

And the GI50 (NCI-H226)?
The GI50 was 93.3 µM (inactive).

And the GI50 (MDA-N)?
The GI50 was 46.1 µM (inactive).

What about the GI50 (HOP-62) of the same compound?
The GI50 was 20.3 µM (inactive).

What about the GI50 (OVCAR-8) of the same compound?
Its GI50 is 21.2 µM (inactive).

What about the GI50 (CCRF-CEM) of the same compound?
The GI50 was > 100 µM (inactive).

And the GI50 (HCT-116)?
Its GI50 is 30.8 µM (inactive).

What about the GI50 (MCF7) of the same compound?
Its GI50 is 13.9 µM (inactive).

What about the GI50 (Malme-3M) of the same compound?
The GI50 was 41.1 µM (inactive).

What about the GI50 (DU-145) of the same compound?
The GI50 was 12.5 µM (inactive).

How did the GI50 (EKVX) turn out when `O=C(/C=C/c1ccc(O)c(-c2cc(C(=O)/C=C/c3ccc(O)cc3)c(O)cc2O)c1)c1ccc(O)cc1O` [RHUSCHALCONE VI] was run?
The GI50 was > 50 µM (inactive).

And the GI50 (NCI-H23)?
Its GI50 is 23.9 µM (inactive).

And the GI50 (MOLT-4)?
Its GI50 is 16.1 µM (inactive).

What about the GI50 (SN12C) of the same compound?
Its GI50 is 20.4 µM (inactive).

What about the GI50 (SK-MEL-5) of the same compound?
The GI50 was 27.8 µM (inactive).

What about the GI50 (SK-MEL-2) of the same compound?
The GI50 was 20.7 µM (inactive).

And the GI50 (SK-OV-3)?
The GI50 was 16.1 µM (inactive).

And the GI50 (COLO 205)?
Its GI50 is 10.5 µM (inactive).

What about the GI50 (786-0) of the same compound?
Its GI50 is 47.6 µM (inactive).

And the GI50 (HCT-15)?
The GI50 was greater than 50 µM.

And the GI50 (A549)?
The GI50 was > 50 µM (inactive).

And the GI50 (UACC-257)?
The GI50 was > 50 µM (inactive).

And the GI50 (SNB-19)?
Its GI50 is 28.6 µM (inactive).

What about the GI50 (M14) of the same compound?
Its GI50 is 49.1 µM (inactive).

What about the GI50 (BT-549) of the same compound?
The GI50 was 15.5 µM (inactive).

And the GI50 (SR)?
The GI50 was 11.4 µM (inactive).

And the GI50 (OVCAR-4)?
The GI50 was 17.9 µM (inactive).

And the GI50 (SF-539)?
The GI50 was 11.7 µM (inactive).

And the GI50 (HOP-92)?
Its GI50 is 24.6 µM (inactive).

And the GI50 (T47D)?
The GI50 was 33.3 µM (inactive).

What about the GI50 (NCI/ADR-RES) of the same compound?
The GI50 was > 50 µM (inactive).

What about the GI50 (TK-10) of the same compound?
The GI50 was > 50 µM (inactive).

And the GI50 (UACC-62)?
Its GI50 is 9.16 µM (inactive).

And the GI50 (NCI-H460)?
Its GI50 is > 50 µM (inactive).

And the GI50 (Hs-578T)?
Its GI50 is 30 µM (inactive).

What about the GI50 (HL-60) of the same compound?
Its GI50 is 17.3 µM (inactive).

And the GI50 (IGROV-1)?
The GI50 was 24.5 µM (inactive).

And the GI50 (K562)?
The GI50 was 13.6 µM (inactive).

What about the GI50 (A498) of the same compound?
The GI50 was > 50 µM (inactive).

And the GI50 (U-251)?
Its GI50 is 15.8 µM (inactive).

And the GI50 (NCI-H522)?
Its GI50 is 37.4 µM (inactive).

What about the GI50 (SNB-75) of the same compound?
Its GI50 is 13.3 µM (inactive).

What about the GI50 (HT-29) of the same compound?
Its GI50 is 10.1 µM (inactive).

What about the GI50 (MDA-MB-435) of the same compound?
Its GI50 is 21.4 µM (inactive).

And the GI50 (CAKI-1)?
Its GI50 is > 50 µM (inactive).

What about the GI50 (SF-295) of the same compound?
The GI50 was 37.5 µM (inactive).

And the GI50 (MDA-MB-231)?
The GI50 was 29.7 µM (inactive).

What about the GI50 (SW-620) of the same compound?
Its GI50 is 19.5 µM (inactive).

And the GI50 (ACHN)?
The GI50 was > 50 µM (inactive).

What about the GI50 (KM12) of the same compound?
Its GI50 is 13.3 µM (inactive).

What about the GI50 (RPMI-8226) of the same compound?
The GI50 was 18.6 µM (inactive).

What about the GI50 (OVCAR-5) of the same compound?
Its GI50 is > 50 µM (inactive).

And the GI50 (OVCAR-3)?
The GI50 was 16.2 µM (inactive).

And the GI50 (SF-268)?
The GI50 was 17.5 µM (inactive).

What about the GI50 (UO-31) of the same compound?
Its GI50 is > 50 µM (inactive).

And the GI50 (SK-MEL-28)?
The GI50 was 10.4 µM (inactive).

And the GI50 (PC-3)?
Its GI50 is 22.5 µM (inactive).

And the GI50 (RXF 393)?
The GI50 was 17.2 µM (inactive).

What about the GI50 (LOX IMVI) of the same compound?
Its GI50 is 14.5 µM (inactive).

And the GI50 (MDA-N)?
Its GI50 is 18.3 µM (inactive).

And the GI50 (HOP-62)?
The GI50 was 30.9 µM (inactive).

What about the GI50 (OVCAR-8) of the same compound?
Its GI50 is 11.7 µM (inactive).

What about the GI50 (CCRF-CEM) of the same compound?
Its GI50 is 10.1 µM (inactive).

What about the GI50 (HCT-116) of the same compound?
The GI50 was 11.5 µM (inactive).

And the GI50 (MCF7)?
The GI50 was 20.2 µM (inactive).

And the GI50 (Malme-3M)?
Its GI50 is 22.1 µM (inactive).

What about the GI50 (DU-145) of the same compound?
Its GI50 is 40.5 µM (inactive).
